Experimental data published in article PMC10821532, “Sex and Cross-Sex Testosterone Treatment Alters Gamma-Hydroxybutyrate Acid Toxicokinetics and Toxicodynamics in Rats” (Pharmaceutics, 2024).

System: Sprague Dawley (SD) rats
Experiment: Sedative/hypnotic effect (sleep time, RRR-LRR) after i.v. GHB
Type: in vivo
Conditions: 1500 mg/kg GHB iv
Procedure: Jugular vein cannulas were surgically implanted under anesthesia with ketamine/xylazine. Cannulas were flushed daily with heparinized saline to maintain patency. Rats were allowed a minimum of 72 h for recovery from surgery before the experiments were conducted. GHB was administered intravenously as a 1000 mg/kg i.v. bolus or 1500 mg/kg iv bolus with or without AR-C155858 (1 mg/kg i.v. bolus) via a jugular vein cannula to the animals at 13 weeks of age (N = 5–7 per group). Rats were dosed in metabolic cages with ad libitum access to water to allow for the concurrent collection of blood and urine samples for up to 8 h. GHB was administered as a 300 mg/mL solution in sterile water, and the time of administration was considered as time 0. AR-C155858 was administered as a 1 mg/mL solution in 10% cyclodextrin in normal saline 5 min after GHB administration. Blood samples (200 μL) were taken from the jugular vein cannula at different time points: 5, 10, 20, 30, 60, 90, 120, 180, 240, 270, 300, and 330 min for 1000 mg/kg and 10, 30, 60, 90, 120, 180, 240, 270, 300, 330, 360, and 390/480 min for 1500 mg/kg bolus with or without AR-C155858. Plasma samples were separated by centrifugation and stored at −20 °C. Urine samples were collected at 120, 240, and 360 min for 1000 mg/kg and 120, 240, and 390/480 min for 1500 mg/kg bolus with or without AR-C155858 post-dose; the total urine volume was determined, and the samples were stored at −20 °C.
The sedative/hypnotic effects (sleep time) were determined, as described in a previous publication. The sedative/hypnotic duration effect of GHB was determined as the difference between the offset of the sedative/hypnotic effect (RRR) and the onset of the sedative/hypnotic effect (LRR).

O=C(O)CCCO [GHB, Γ-hydroxybutyric acid]
Sleep time (RRR–LRR), average (testosterone-treated CST rats): 422.5 min | Sleep time, two individual rats (two of the testosterone-treated CST rats): ~ 600 min
